These are literature values, as cited in patent US20010031278A1, “Sustained release oxycodone formulations with no fed/fast effect” (priority 1996, published 2001).

The conditions of this series: gastric fluid (pH about 1) vs intestinal fluid (pH about 7.5).

As for `COc1ccc2c3c1O[C@H]1C(=O)CC[C@@]4(O)[C@@H](C2)N(C)CC[C@]314.Cl` [Oxycodone hydrochloride], the “solubility at low vs high pH” value is given as “more soluble in gastric fluid (pH about 1) than in intestinal fluid (pH about 7.5)”.
